“And” between values parts separate entries of the source, which are not always exact repeats. Equal values may be shown once. The source made the active and inactive calls.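 The calls were made as follows: active = compounds giving half or more protection of infected cells from virus-caused growth loss, again on retest; inactive = the rest.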
System: CEM cells HIV-1 protection, formazan growth assay
Experiment: NCI AIDS Antiviral Assay
Details: for IC50: measured here: growth of uninfected CEM cells
Procedure, shortened: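 Category rules: moderately active means at least 50% protection on retest, and confirmed active means 100% protection reproducibly. The underlying data came from a formazan growth assay in HIV-1-infected CEM cells.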

Row | Compound | EC50 | IC50 | outcome
1 | CCOC(=O)C(=O)Nc1c(C)cccc1CC | > 776 µM | > 776 µM | 
2 | COc1ccccc1/C=C1\Sc2scc(-c3ccc(O)c(O)c3)[n+]2C1=O | > 200 µM | 3.89 µM | 
3 | CC1=N/C(=C\c2cccc(Cl)c2)C(=O)O1 | > 85.1 µM | > 85.1 µM | 
4 | COC(=O)N1CC2CC=CC(C2)c2ccccc21 (stereo not given) | > 204 µM | > 204 µM | 
5 | Nc1ccc(C(=O)N/C(=C\c2cccc([N+](=O)[O-])c2)c2nc3ccc(Cl)cc3[nH]2)cc1 |  |  | inactive
6 | COc1cccc(/C=C2\C(=O)N(C(=O)c3ccc(NC(C)=O)cc3)N=C2C)c1 | > 36.3 µM | > 36.3 µM | 
7 | COc1ccc(C(=O)/C=C/c2ccc(OCC#N)cc2)cc1OC | > 200 µM | 3.31 µM | 
8 | CC12CO[C@@](C)(CC(S(=O)(=O)c3ccccc3)C1)O2 (stereo not given in full) | > 178 µM | > 178 µM | 
9 | C[C@]12CCc3nonc3C1CC[C@@H]1C2CC[C@]2(C)C(=O)CCC12 (stereo not given in full) | > 83.2 µM | > 83.2 µM | 
10 | CN(C)c1ccc(/C=C/C=C(/C#N)c2ccccc2)cc1 | > 100 µM | 12.3 µM | 
11 | O=C(N/C(=C\c1ccc(Br)cc1)c1nc2ccccc2[nH]1)c1ccccc1 | > 61.7 µM | 33.9 µM | 
12 | CCCCc1ccc(N=C(N)N)cc1 | > 200 µM | 28.8 µM | 
13 | CCOC(=O)c1ccc(CS(=O)(=O)c2ccc([N+](=O)[O-])cc2)c([N+](=O)[O-])c1 | > 91.2 µM | 60.3 µM | 
14 | COc1ccc(CN2CCCN(/N=C/c3c4c(O)c5c(O)c(C)c6c(c5c3O)C(=O)C(C)(O/C=C/C(OC)C(C)C(OC(C)=O)C(C)C(O)C(C)C(O)C(C)/C=C/C=C(C)C(=O)N4)O6)CC2)cc1 (stereo not given) | > 200 µM | 12 µM | 
15 | O=C1C(=Nc2ccc(Nc3ccccc3)cc2)Oc2ccccc21 | > 200 µM | 3.09 µM | 
16 | c1ccc(CSSCc2ccccc2)cc1 |  |  | inactive
17 | CN1C(=O)OC2OC(C)(c3ccc(S(=O)(=O)c4ccccc4)cc3)C(=O)CC21 (stereo not given) | > 123 µM | > 123 µM | 
18 | COc1cc(C2C(C(=O)Nc3ccccc3)=C(C)NC(C)=C2C(=O)Nc2ccccc2)ccc1O |  |  | inactive
19 | O=C(O)c1nn(-c2ccccc2-c2n[nH]c(=O)[nH]c2=O)c(=O)[nH]c1=O | > 200 µM | > 200 µM | 
20 | CC1(C)OC(=O)c2cc(C(=CC=O)c3cc(Cl)c4c(c3)C(=O)OC(C)(C)O4)cc(Cl)c2O1 | > 200 µM | 36.3 µM | 
21 | COC(=O)/C(C#N)=C1\N=NNN1c1ccc(OC)cc1 |  |  | inactive
22 | CC12CC(Sc3ccccc3N1)c1ccccc1O2 (stereo not given) | > 132 µM | 21.4 µM | 

Row | Compound | EC50 | IC50 | outcome
23 | O=C1CCCCC1CN1CCCC1 (stereo not given) |  |  | inactive
24 | COc1ccc(C(OC(=O)[C@H](O[Si](C)(C)C(C)(C)C)[C@@H](NC(=O)c2ccccc2)c2ccccc2)c2ccc(OC)cc2)cc1 | > 200 µM | 95.5 µM | 
25 | O=C(Cn1c2ccc(Br)cc2c2nc3ccccc3nc21)Nc1ccccc1 | > 100 µM | > 100 µM | 
26 | CCCCN(CC)CC(C(C)=O)c1c(O)c2ccccc2oc1=O (stereo not given) | > 70.8 µM | > 70.8 µM | 
27 | Cc1cc(C(O)(c2cc(C)c(O)c(C(=O)O)c2)c2cc(C)c(O)c(C(=O)O)c2)cc(C(=O)O)c1O | > 3.72 µM | > 3.72 µM | 
28 | O=C(NCc1ccccc1)/C(=C/c1ccccc1)NC(=O)c1ccccc1 | > 200 µM | > 200 µM | 
29 | O=c1[nH]c(=O)n(C2CC(O)C(CO)O2)cc1C#Cc1cc(C(F)(F)F)cc(C(F)(F)F)c1 (stereo not given) | > 40.7 µM | > 40.7 µM | 
30 | O=C1NC(=O)C(=O)C(c2nc3ccccc3s2)C1=O |  |  | inactive
31 | C/C(Cl)=N\OC(=O)Nc1ccc(C)cc1 | > 200 µM | 18.6 µM | 
32 | Cc1cccc(N=Nc2c(C)nn(C(=O)c3ccccc3Cl)c2C)c1 |  |  | inactive
33 | C[S+](C)(=O)CCCS(=O)(=O)[O-] | > 200 µM | > 200 µM | 
34 | Brc1ccc(C2CC(c3cccc4ccccc34)=Nc3ccccc3S2)cc1 (stereo not given) | > 11.7 µM | > 11.7 µM | 
35 | Cn1c(=O)n(C2(C)C[Se]C2)c2ccccc21 | > 468 µM | 166 µM | 
36 | CC1(C)OC(CP(c2ccccc2)c2ccccc2)C(CP(c2ccccc2)c2ccccc2)O1 (stereo not given) | > 2 µM | 0.229 µM | 
37 | O=Cc1ccc(/C=C2\C=Cc3ccccc32)cc1 | > 58.9 µM | > 58.9 µM | 
38 | COC(=O)c1cccc(C)c1C1CN=NC12Cc1c(ccc(C)c1C)C2=O (stereo not given) | > 200 µM | > 200 µM | 
39 | N#Cc1nc(CCC(c2nc(C#N)c(N)o2)N2C(=O)c3ccccc3C2=O)oc1N (stereo not given) | > 200 µM | > 200 µM | 
40 | O=c1[nH]c2c(cnn2-c2ccccc2)c(=O)n1OS(=O)(=O)c1ccccc1 | > 200 µM | > 200 µM | 
41 | O=C(ON=c1c2ccccc2ccc2ccccc12)c1ccccc1 | > 200 µM | 33.9 µM | 
42 | OC(C1CCCCCCCCCC1)C(O)C1CCCCCCCCCC1 (stereo not given) | > 200 µM | > 200 µM | 
43 | Nc1c(S(=O)(=O)c2ccc(Cl)cc2)c2nc3ccccc3nc2n2ccnc12 | 151 µM | > 200 µM | 
44 | CC(=O)OCC(OC(C)=O)C(OC(C)=O)C(OC(C)=O)C(C=NN(C(C)=O)S(=O)(=O)c1ccc(/C=C2\NC(=O)NC2=O)cc1)OC(C)=O (stereo not given) | > 200 µM | 87.1 µM and 117 µM | 

Row | Compound | EC50 | IC50 | outcome
45 | NC(N)=Nc1ccc(/C=C2\C=Cc3ccccc32)cc1 | > 27.5 µM | 10.5 µM | 
46 | CC(C)(C)NN=C1C(C)(C)C(=NNC(C)(C)C)C1(C)C | > 316 µM | > 316 µM | 
47 | O=C(OCCOCCO)c1ccccc1-c1c2cc(I)c(=O)c(I)c-2oc2c(I)c(O)c(I)cc12 | > 200 µM | 5.13 µM | 
48 | CCOC(=O)c1cc(C2=CCNC2=O)c(-c2cc(C)no2)[nH]1 | > 200 µM | 33.1 µM | 
49 | Clc1cccc(Cl)c1C1ON=C(c2ccccc2)N1C12CC3CC(CC(C3)C1)C2 (stereo not given) | > 100 µM | 14.5 µM | 
50 | CC(=O)Nc1ccc(S(=O)(=O)NNC(=O)NNS(=O)(=O)c2ccc(NC(C)=O)cc2)cc1 | > 7.41 µM | > 7.41 µM | 
51 | COc1cc(N=Nc2c(O)c3ccccc3[nH]c2=O)c(OC)cc1N=Nc1ccccc1 | > 100 µM | > 100 µM | 
52 | CCOC(=O)/C(C#N)=C/c1cccc(OC)c1 | > 155 µM | > 155 µM | 
53 | Oc1ccc(/C=C/c2cc(O)cc3c2C(c2cc(O)cc4c2C(c2cc(O)cc(O)c2)C(c2ccc(O)cc2)O4)C(c2ccc(O)cc2)O3)cc1 (stereo not given) | > 20.9 µM | 10.5 µM | 
54 | O=C(O)/C=C\C(=O)c1ccc(Cl)cc1 | > 324 µM | 58.9 µM | 
55 | COc1ccc2c(c1)N(S(=O)(=O)c1ccc(C)cc1)C[C@@H]1c3cc(O)c(OCc4ccccc4)cc3O[C@H]21 |  |  | inactive
56 | Cn1c(=O)c2[nH]cnc2n(CC(N)=O)c1=O | > 562 µM | > 562 µM | 
57 | CC(=O)Nc1ccc(S(=O)(=O)Nc2ccc(S(=O)(=O)c3ccc(NC(=O)c4ccccc4SSc4ccccc4C(=O)Nc4ccc(S(=O)(=O)c5ccc(NS(=O)(=O)c6ccc(NC(C)=O)cc6)cc5)cc4)cc3)cc2)cc1 | 24 µM | > 100 µM | 
58 | C[C@]12CC[C@@H]3c4cc(OCC(F)(F)F)c(O)cc4/C(=N/O)C[C@H]3[C@@H]1CC[C@@H]2O | > 0.2 µM | 0.0933 µM | 
59 | COC(=O)c1ncn(C)c1O | > 200 µM | > 200 µM | 
60 | H-HSFNCGGEFFY-OH |  |  | inactive
61 | Cc1ccc(S(=O)(=O)N2CCN(CCN(C)CCN3CCN(S(=O)(=O)c4ccc(C)cc4)CC3)CC2)cc1 | > 100 µM | 46.8 µM | 
62 | CC(C)C1=CC(=O)C(C)(C2=NC(C)(C)CO2)c2ccccc21 (stereo not given) | > 437 µM | > 437 µM | 
63 | CN1C(=O)CNC(=O)c2ncn(C3OC(CO)C(O)C3O)c21 (stereo not given) | > 229 µM | > 229 µM | 
64 | CC(C)N(C(=O)C12C3C4C1C1C2C3C41C(=O)O)C(C)C (stereo not given) | > 129 µM | > 129 µM | 
65 | O=C1C=C(C2=C(C3=CC(=O)c4ccccc4C3=O)C(=O)c3ccccc3C2=O)C(=O)c2ccccc21 | > 100 µM | 1.38 µM | 
66 | N#Cc1c(N2CCOCC2)[nH]c(=O)n(-c2ccccc2)c1=S | > 200 µM | > 200 µM | 

Row | Compound | EC50 | IC50 | outcome
67 | Cc1ccc(NC(=O)C(=O)CC(=O)c2c(C)n([O-])c3ccccc3[n+]2=O)cc1 | > 13.2 µM | > 13.2 µM | 
68 | ClCC1(CCl)COC1 | > 1620 µM | > 1620 µM | 
69 | CC(=O)O[C@]12CCC[C@H]1C1(O)C(O)CCC[C@H]12 (stereo not given in full) | > 200 µM | > 200 µM | 
70 | CCCCN(CCCC)C(=NCc1ccccc1)NC#N | > 100 µM | 17.4 µM | 
71 | CO[C@]12[C@@H](COC(=O)NCCO)C3=C(C(=O)C(C)=C(N)C3=O)N1C[C@@H]1[C@H]2N1C (stereo not given in full) | > 200 µM | 52.5 µM | 
72 | CCC[CH2][Sn]1([CH2]CCC)[O]C(=O)c2cc(I)cc(I)c2[O]1 |  |  | inactive
73 | Cc1ccc(/C=N/Nc2cnccn2)s1 | > 200 µM | > 200 µM | 
74 | Cc1nccc2c(C)c3sc4ccccc4c3cc12 | > 91.2 µM | 2.14 µM | 
75 | N#CCCN(CCC#N)C(=O)c1cccc(C(=O)N(CCC#N)CCC#N)c1 |  |  | inactive
76 | O=C(NC(C(F)(F)F)(C(F)(F)F)P(=O)(c1ccccc1)c1ccccc1)C(C(F)(F)F)C(F)(F)F | > 200 µM | 11.7 µM | 
77 | O=C(CC(C(=O)c1cccs1)c1ccsc1)c1ccccc1 (stereo not given) | > 200 µM | 151 µM | 
78 | CC(=O)OC1C[N+]2(CCc3ccccc3)CCC1CC2 (stereo not given) | > 708 µM | > 708 µM | 
79 | CCOC(=O)C#CCCOC1CCCCO1 (stereo not given) | > 138 µM | 112 µM | 
80 | O=C(c1ccccc1)C1N=NN(Cc2ccccc2[N+](=O)[O-])C1C(=O)c1ccccc1 (stereo not given) | > 4.79 µM | > 4.79 µM | 
81 | CN(C)Cc1cc(C(=O)/C=C/c2ccc(Cl)cc2Cl)cc(CN(C)C)c1O | > 200 µM | 3.8 µM | 
82 | CC(=O)C(N=Nc1ccc(S(=O)(=O)NC2ONC(C)C2C)cc1)C(=O)Nc1ccc(Cl)cc1 (stereo not given) | > 200 µM | 36.3 µM | 
83 | C[C@H]1[C@H](C)Oc2c3c(c4c(CO)cc(=O)oc4c2[C@H]1O)OC(C)(C)C=C3 | > 200 µM | > 200 µM | 
84 | O=C(Cc1nc2ccccc2s1)C(=O)Nc1ccc(Cl)cc1 |  |  | inactive
85 | Cc1ccc(/C=N/n2c(=O)[nH]c3ccccc3c2=O)cc1 | > 200 µM | > 200 µM | 
86 | NC(CCSSCCC(N)C(=O)NCC(=O)O)C(=O)NCC(=O)O (stereo not given) | > 64.6 µM | > 64.6 µM | 

From PubChem BioAssay AID179 (DTP/NCI, 2004)
